“Also recorded” adds a separate entry of the source. Like-named read-outs stand apart in the source and are kept apart here.

The results in this text go back to patent US20140328795A1, “VIRUCIDAL SMALL MOLECULE AND USES THEREOF” (The Texas A&M University System, priority 2012, published 2014).

One data set relates to SIV. Briefly: SIV infectivity assay in TZM-bl cells (β-galactosidase). It counts as cell-based. As to conditions: Simian immunodeficiency virus; for IC90: IC90 per footnote, read-out: IC50 (the source's name).
In data set [1] the test system is commensal Lactobacillus species. Briefly: Lactobacillus toxicity testing, all strains together. The class given is cell-based. The protocol:
Reference strains of L. crispatus and L. jensenii were obtained from the ATCC (Manassas, Va.) and cultured on Columbia blood agar plates at 35° C. in air enriched with 6% CO2. Bacterial suspensions were prepared in saline or ACES buffer to a density of 2 McFarland units (˜2×10^8 bacteria/mL), and exposed to PD (300 μM) or DMSO (10%) for 30 minutes at 37° C. After incubation, the cells were serially diluted in ACES buffer, pH 7.0 (Sigma-Aldrich, St. Louis, Mo.) and plated on blood agar plates to quantify colony forming unit per mL (CFU/mL)
Different bacterial strains were incubated with 300 μM PD or solvent DMSO-containing control media at 37° C. for 30 min and plated on blood agar plates to estimate their corresponding colony forming units per ml (CFU/ml). Less than 1 log difference between control and test CFU is considered non-toxic17.

In the next data set the test system is HIV-2. Briefly: HIV-2 infectivity assay in TZM-bl cells (β-galactosidase). It counts as cell-based. As to conditions: Human immunodeficiency virus 2, TZM-bl, PD in DMEM with 10% fetal bovine serum, IC90 per footnote, read-out: IC50 (the source's name).
A further data set deals with VSV-Gpp. The class given is physicochemical. As to conditions: pH 7.
The next data set deals with DC-associated HIV-1. It counts as cell-based. As to conditions: 10 μM PD added to DC 2 h after virus, pseudotyped NL4.3ΔEnv-eGFP/gp160 Env virus, Jurkat T cells, 3 days.
The subject of data set [2] is HCVcc. The class given is cell-based, HCV.
Data set [3] concerns HIV-1 (X4 NL4.3) particles. As to conditions: 10 μM PD, 30 min, 37° C.; 20-70% sucrose gradient.
The next data set deals with HSV-2 (333). The class given is cell-based. As to conditions: 2 μM and 0.2 μM PD. The protocol:
(§1) FIGS. 16A-16B depict effectiveness of PD against HSV. PD blocks HSV infection. Vero cells were seeded in a 24-well plate and infected with HSV-1 (Syn 17) or HSV-2 (333) (FIG. 16A). PD (200 nM) or control DMSO (0.01%) was added immediately to the target cells after viral inoculation. Two days later, the cells were harvested, stained with antibody against HSV glycoprotein gD and analyzed by flow cytometry. Error bars represent standard deviation of triplicate samples. Results are representative of two independent experiments. PD Destabilizes HSV particles (FIG. 16B). Concentrated HSV (˜20 μg/mL) was incubated with DMSO (0.01%) or PD (200 nM) for 30 min at 37° C. and the mixture was immediately loaded over a 20-70% sucrose density gradient. The amount of HSV glycoprotein gpB in each fraction was analyzed by ELISA. The sucrose gradient density of each fraction was determined by measuring the refractive index. Results are representative of 2 independent experiments. Error bars represent the standard deviation of triplicate samples.
(§2) Vero cells (2×10^5 cells/well) were seeded in a 24 well plate. The next day, these cells were infected with increasing titers (MOI range 0.0001-1) of HSV-1 (Syn 17) or HSV-2 (333) in the presence of PD (2 μM and 200 nM) or control DMSO (0.01%) prepared in DMEM in the absence of serum. Two days post-inoculation, cells were harvested, fixed with 5% paraformaldehyde (PFA) in PBS, stained with antibodies against HSV glycoprotein gD (Novus biological, Littleton, Colo.) and analyzed by flow cytometry.
(§3) Applicants investigated the ability of PD to inactivate HSV-1 and -2. Vero cells were infected with HSV-1 and HSV-2 in the presence of PD (2 μM and 0.2 μM) or DMSO (0.01%). These concentrations were selected based on their closeness to the in vitro IC50 of PD against HIV-1. Infection was quantified by the cell surface expression of HSV gD. […] Similar results were obtained for both concentrations and the data from the lowest concentration is presented.

The test system of a further data set is HSV-1 (Syn 17). It counts as cell-based. As to conditions: 2 μM and 0.2 μM PD. The protocol: as §1, §2, §3
Data set [4] deals with HCVcc. It counts as cell-based, HCV. The source holds these as a separate data set.
The test system of data set [5] is HepG2, HCT-8, Huh-7, Huh-7.5, TZM, PC3 and 293T cells. It counts as cell-based, human.
Setting [6] is: SIVsyk1.2, PD in DMEM with 10% fetal bovine serum.

Consider `N=C1Sc2ccccc2C2=NCCCN12` [PD, PD 404,182], for which the IC90 was found to be 6.2 µM in the data set on SIV (SIVmoc251 32H, PD in DMEM with 10% fetal bovine serum); 5.4 µM in the data set on SIV (setting [6]); 4.7 µM in the data set on HIV-2 (HIV-2OD 0310342); 6.6 µM with HIV-2 (HIV-27312A). In addition, the IC50 in the data set with SIV (setting [6]) is 1.8 µM. In addition, the “effect on Lactobacillus strains” value in [1] (300 μM PD, 37° C., 30 min) is on record as “no adverse effect”. Further, the CC50 is greater than 300 µM in [1] (vaginal commensal bacteria Lactobacilli); greater than 300 µM in data set [5] (cervical cancer cells); greater than 300 µM in [5] (seven different human cell lines, including TZM-bl (HeLa)). The long-term stability result with VSV-Gpp is listed as “not stable”. For the same molecule, the “DC to T cell transmission of HIV-1” value in the data set with DC-associated HIV-1 is “prevents subsequent T cell infection with the pseudotyped virus”. In the data set with HCVcc [2], the “inhibition of virus infectivity” value is reported as greater than 10 fold. Besides, the “sedimentation of HIV-1 capsid and RT in sucrose gradient” value in data set [3] was “viral capsid and RT relocate to the top of the gradient”. Further, the “effect on HSV-2 infection” value in the data set on HSV-2 (333) (MOI 1) was “partial protection”; in the data set with HSV-2 (333) (MOI from 0.0001 to 0.1), “inhibit both HSV-1 and HSV-2 infection”. Further, the “effect on HSV-1 infection” value with HSV-1 (Syn 17) (MOI 1) was “partial protection”; in the data set with HSV-1 (Syn 17) (MOI from 0.0001 to 0.1) it was “inhibit both HSV-1 and HSV-2 infection”. Besides, the “attachment of PD-treated HCVcc to cells” value in the data set with HCVcc [4] was “binds to cells comparably to control DMSO-treated virus; also recorded: slight decrease in attachment”.

The IC50 is the concentration needed to halve the response being measured. A higher IC50 goes with lower potency. Broadly, the CC50 is the concentration at which the toxic effect on the cells reaches its halfway point. Read a high CC50 as lower toxicity to the cells.
